One test concerns HL60 (leukemia). In words: In vitro cytotoxic activity (MTT) assay, HL60. The test is classed as cell-based. Conditions: Homo sapiens, HL-60; HL60 (leukemia) cells, exposed for 96 hours; read-out: IC50, concentration eliciting 50% inhibition of cell proliferation. Here is the method: (§1) Compounds 1-15 were screened for their in vitro cytotoxic activity utilizing a 3-(4,5-dimethyl-thiazol-2-yl)-2,5-diphenyltetrazolium bromide (MTT) assay against selected cancer human cell lines consisting of PC3 (prostate), HCT116 (colon), A375 (melanoma), H1299 (lung), MIAPaCa-2 (pancreas), HL60 (leukemia), MCF7 (breast), MDA-MB-231 (breast) (T. Mosmann, J. Immunol. Meth., 1983, 65, 55-63). The cells were cultured at 37° C. in RMPI1640 medium supplemented with 10% fetal bovine serum, 50 IU/mL penicillin, and 50 μg/mL streptomycin in a 5% CO2 incubator. All cells were sub-cultured 3 times/week by trypsinisation. Viable cells were seeded and allowed to adhere for 12 h before a test drug was added in 96-well plates at an initial density of 1.0×10^5 cells/mL. Tumor cell lines were separately exposed to various concentrations of the tested compounds followed by incubation at a temperature of 37° C. during 96 hours inside a medium of fresh RMPI 1640. Cells were subsequently incubated at 37° C. using MTT at 0.5 mg/mL during 4 hours. After removal of supernatant, formazan crystals were dissolved in isopropanol and the optical density was measured at 570 nm. CX-4945 was used as a positive control.

The next test has as its system H1299 (lung). In words: In vitro cytotoxic activity (MTT) assay, H1299. The test is classed as cell-based. The conditions noted are these: Homo sapiens, NCI-H1299; H1299 (lung) cells, exposed for 96 hours; read-out: IC50, concentration eliciting 50% inhibition of cell proliferation. Here is the method:
as §1

The test system of a further test is MCF7 (breast). In words: In vitro cytotoxic activity (MTT) assay, MCF7. The test is classed as cell-based. Conditions: Homo sapiens; MCF7 (breast) cells, exposed for 96 hours; read-out: IC50, concentration eliciting 50% inhibition of cell proliferation. Here is the method: as §1
In another test the test system is MDA-MB-231 (breast). In words: In vitro cytotoxic activity (MTT) assay, MDA-MB-231. The test is classed as cell-based. The conditions noted are these: Homo sapiens; MDA-MB-231 (breast) cells, exposed for 96 hours; read-out: IC50, concentration eliciting 50% inhibition of cell proliferation. The protocol: as §1
Another test has as its system PC3 (prostate). In words: In vitro cytotoxic activity (MTT) assay, PC3. The test is classed as cell-based. Conditions: Homo sapiens, Prostate cell; PC3 (prostate) cells, exposed for 96 hours; read-out: IC50, concentration eliciting 50% inhibition of cell proliferation. The protocol:
as §1

In a further test the test system is A375 (melanoma). As to the kind of experiment: In vitro cytotoxic activity (MTT) assay, A375. The test is classed as cell-based. Conditions: Homo sapiens, A-375; A375 (melanoma) cells, exposed for 96 hours; read-out: IC50, concentration eliciting 50% inhibition of cell proliferation. The protocol:
as §1

Test [1] addresses T1, recombinant human CK2 (RRββ-holoenzyme) (Homo sapiens, UniProt P68400).
T1 construct: purchased Millipore
In words: CK2 Kinase Assay (33P-ATP, filter plate). The test is classed as biochemical. The conditions noted are these: final ATP concentration 15 μM, 10 min at 30° C.; read-out: protein kinase CK2 IC50. Here is the method:
CK2 Kinase Assay was conducted using the protocol as described in Pierre F. et al; J. Med. Chem. 2011, 54, 635-654. The tested compounds in aqueous solution were added at a volume of 10 μL to a reaction mixture comprising 10 μL of assay dilution buffer (ADB; 20 mM MOPS, pH 7.2, 25 mM β-glycerol phosphate, 5 mM EGTA, 1 mM sodium orthovanadate, and 1 mM dithiothreitol), 10 μL of substrate peptide (RRRDDDSDDD, dissolved in ADB at a concentration of 1 mM), 10 μL of recombinant human CK2 (RRββ-holoenzyme, 25 ng dissolved in ADB; Millipore). Reactions were initiated by the addition of 10 μL of ATP solution (90% 75 mMMgCl2, 75 μM ATP (final ATP concentration: 15 μM) dissolved in ADB; 10% [γ-33P] ATP (stock 1mCi/100 μL; 3000 Ci/mmol (Perkin-Elmer) and maintained for 10 min at 30° C. The reactions were quenched with 100 μL of 0.75% phosphoric acid and then transferred to and filtered through a phosphor cellulose filter plate (Millipore). After washing each well five times with 0.75% phosphoric acid, the plate was dried under vacuum for 5 min and, following the addition of 15 μL of scintillation fluid to each well, the residual radioactivity was measured using a Wallac luminescence counter. The IC50 values were derived from eight concentrations of test inhibitors.

In another test the test system is MIAPaCa-2 (pancreas). In words: In vitro cytotoxic activity (MTT) assay, MIAPaCa-2. The conditions noted are these: Homo sapiens, MIA PaCa-2; MIAPaCa-2 (pancreas) cells, exposed for 96 hours; read-out: IC50, concentration eliciting 50% inhibition of cell proliferation. The test is classed as cell-based. Here is the method: as §1
A further test has as its system HCT116 (colon). In words: In vitro cytotoxic activity (MTT) assay, HCT116. The test is classed as cell-based. The conditions noted are these: Homo sapiens, HCT-116; HCT116 (colon) cells, exposed for 96 hours; read-out: IC50, concentration eliciting 50% inhibition of cell proliferation. Here is the method:
as §1

Molecules are shown by their SMILES.

T1 sequence (P68400 whole entry): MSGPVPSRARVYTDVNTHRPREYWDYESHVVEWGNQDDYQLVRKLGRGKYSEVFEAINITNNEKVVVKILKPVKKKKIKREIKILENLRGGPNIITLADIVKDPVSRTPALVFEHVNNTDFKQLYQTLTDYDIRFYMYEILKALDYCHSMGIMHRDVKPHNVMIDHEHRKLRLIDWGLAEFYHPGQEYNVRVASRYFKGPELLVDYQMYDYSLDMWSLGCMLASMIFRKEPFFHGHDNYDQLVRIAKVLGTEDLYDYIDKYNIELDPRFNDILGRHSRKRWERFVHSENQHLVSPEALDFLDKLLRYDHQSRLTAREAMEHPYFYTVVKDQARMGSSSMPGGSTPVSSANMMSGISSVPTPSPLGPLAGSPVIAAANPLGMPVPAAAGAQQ
T1 sequence (P67870 whole entry partner): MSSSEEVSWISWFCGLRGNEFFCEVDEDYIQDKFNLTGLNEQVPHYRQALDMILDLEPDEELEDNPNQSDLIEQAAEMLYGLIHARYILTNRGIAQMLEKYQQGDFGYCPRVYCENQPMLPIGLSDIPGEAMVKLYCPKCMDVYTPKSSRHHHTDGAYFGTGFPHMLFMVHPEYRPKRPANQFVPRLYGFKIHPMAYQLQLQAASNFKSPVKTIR

Turning to `Clc1cccc(Nc2nc3ccncc3c3[nH]c4ccncc4c23)c1` [Compound 1, N-(3-chlorophenyl)-11H-pyrido[3′,4′:4,5]pyrrolo[3,2-c][1,6]naphthyridin-6-amine], the IC50 in the test on HL60 (leukemia) came out at 3.5 µM; in the test with H1299 (lung) it was 1.2 µM; with MCF7 (breast), 3.1 µM; with MDA-MB-231 (breast) it was 2.6 µM; with PC3 (prostate), 1 µM; in the test on A375 (melanoma), 4.4 µM. The IC50 in test [1] was 0.029 µM; with MIAPaCa-2 (pancreas) it was 1.1 µM; in the test on HCT116 (colon) it was 1.3 µM.

The record behind these values is US11964976B1, “Substituted pyrido[3′,4′:4,5]pyrrolo[3,2-c][1,6]naphthyridines as CK2 inhibitors” (KING FAISAL UNIVERSITY, priority 2023, dated 2024).
